# Assay results as given in patent publication US7854753B2, “Photokinetic delivery of biologically active substances using pulsed incoherent light” (Photokinetix, Inc., priority 2002, dated 2010).
# Key:
# [1] = volume of water for 1 g; cited from earlier work
# [2] = Franz skin diffusion cell permeation (percutaneous absorption) under ambient, natural or pulsed incoherent LED light; settings: for Permeation Dark: ambient light absent; for Ctrl / Ctrl-TiO2: Table 8 (405 nm series); for Ctrl: ambient light only; for Ctrl-TiO2 / Effect of 2% (w/w) TiO2 on permeation: ambient light; for Ctrl-TiO2: 2% TiO2; for Ctrl-TiO2/1.7 / Ctrl-TiO2/9.7 / Ctrl-TiO2/24: Table 8, 405 nm series; for Ctrl-TiO2/1.7: 2% TiO2, 1.7 cps; for Ctrl-TiO2/9.7: 2% TiO2, 9.7 cps; for Ctrl-TiO2/24: 2% TiO2, 24 cps; for 405/1.7 / 405/9.7 / 405/24: Table 8; for 405/1.7 / Permeation 1.7 cps: 1.7 cps; for 405/9.7 / Permeation 9.7 cps: 9.7 cps; for 405/24: 24 cps; for Permeation Ctrl: ambient cool fluorescent light only, 260-750 nm, 120 cps; for Permeation Ctrl-TiO2: ambient fluorescent light, sample with 2% (w/w) rutile TiO2; for Effect of 2% (w/w) TiO2 on permeation: FIG. 4; for Permeation 350 / Permeation 405: 75% duty cycle
structure (smiles),measurement,setting,value
"Cc1ncc(CO)c(CO)c1O [Compound 5, Pyridoxine]",Water Solubility (1 g),[1],4.5 mL
same,Permeation Dark,[2]; Dark control,261.30 μg/0.64 cm^2/25 hrs
same,Ctrl,[2],32.90
same,Ctrl-TiO2,[2],806.25
same,Ctrl-TiO2/1.7,[2],537.60
same,Ctrl-TiO2/9.7,[2],862.75
same,Ctrl-TiO2/24,[2],0.00
same,405/1.7,[2]; 405 nm,179.38
same,405/9.7,[2]; 405 nm,0.00
same,405/24,[2]; 405 nm,187.81
same,Permeation Ctrl,[2],32.90 μg/0.64 cm^2/25 hrs
same,Permeation Ctrl-TiO2,[2],806.20 μg/0.64 cm^2/25 hrs
same,Effect of 2% (w/w) TiO2 on permeation,[2],significant effect
"O=C(O)c1cccnc1 [Compound 6, Nicotinic acid]",Water Solubility (1 g),[1],60 mL
same,Permeation Dark,[2]; Dark control,976.30 μg/0.64 cm^2/25 hrs
same,Ctrl,[2],0.00
same,Ctrl-TiO2,[2],1371.00
same,Permeation Ctrl,[2],0.00 μg/0.64 cm^2/25 hrs
same,Permeation Ctrl-TiO2,[2],1371.00 μg/0.64 cm^2/25 hrs
same,Effect of 2% (w/w) TiO2 on permeation,[2],significant effect
"Cn1cnc2c1c(=O)[nH]c(=O)n2C [Compound 7, Theobromine]",Water Solubility (1 g),[1],2000 mL
"Cn1c(=O)c2[nH]cnc2n(C)c1=O [Compound 8, Theophylline]",Water Solubility (1 g),[1],120 mL
"NC(=O)c1cccnc1 [Compound 10, Nicotinamide]",Water Solubility (1 g),[1],1 mL
same,Permeation Dark,[2]; Dark control,543.70 μg/0.64 cm^2/25 hrs
same,Ctrl,[2],42.72
same,Ctrl-TiO2,[2],851.83
same,Ctrl-TiO2/1.7,[2],668.31
same,Ctrl-TiO2/9.7,[2],1387.33
same,Ctrl-TiO2/24,[2],0.00
same,405/1.7,[2]; 405 nm,26.22
same,405/9.7,[2]; 405 nm,32.69
same,405/24,[2]; 405 nm,0.00
same,Permeation Ctrl,[2],42.72 μg/0.64 cm^2/25 hrs
same,Permeation Ctrl-TiO2,[2],851.80 μg/0.64 cm^2/25 hrs
same,Effect of 2% (w/w) TiO2 on permeation,[2],significant effect
"C[C@]12CCC(=O)C=C1CC[C@@H]1[C@@H]2CC[C@@]2(C)[C@H]1CC[C@]2(C)O [Compound 17, Methyl Testosterone]",Water Solubility (1 g),[1],Insoluble
same,Permeation 350,"[2]; 350 nm LED, pulse rate 24 cps",153.25 μg/0.64 cm^2/25 hrs
same,Permeation 1.7 cps,[2]; 350 nm,12.84 μg/0.64 cm^2/25 hrs
same,Permeation 9.7 cps,[2]; 350 nm,29.57 μg/0.64 cm^2/25 hrs
same,Permeation 405,"[2]; 405 nm LED, pulse rate 24 cps",25.37 μg/0.64 cm^2/25 hrs
same,Permeation Dark,[2]; Dark control,0.00 μg/0.64 cm^2/25 hrs
same,Permeation Ctrl,[2],0.00 μg/0.64 cm^2/25 hrs
same,Permeation Ctrl-TiO2,[2],0.00 μg/0.64 cm^2/25 hrs
"CC(=O)[C@H]1CC[C@H]2[C@@H]3CCC4=CC(=O)CC[C@]4(C)[C@H]3CC[C@]12C [Compound 18, Progesterone]",Water Solubility (1 g),[1],Insoluble
same,Permeation 350,"[2]; 350 nm LED, pulse rate 24 cps",149.91 μg/0.64 cm^2/25 hrs
same,Permeation 1.7 cps,[2]; 350 nm,2.58 μg/0.64 cm^2/25 hrs
same,Permeation 9.7 cps,[2]; 350 nm,2.80 μg/0.64 cm^2/25 hrs
same,Permeation 405,"[2]; 405 nm LED, pulse rate 24 cps",6.19 μg/0.64 cm^2/25 hrs
same,Permeation Dark,[2]; Dark control,0.00 μg/0.64 cm^2/25 hrs
same,Permeation Ctrl,[2],0.00 μg/0.64 cm^2/25 hrs
same,Permeation Ctrl-TiO2,[2],0.00 μg/0.64 cm^2/25 hrs
"C[C@@H]1[C@H](O)[C@@H](C)/C=C/C=C/C=C/C=C/C=C/C=C/C=C/[C@H](O[C@@H]2O[C@H](C)[C@@H](O)[C@H](N)[C@@H]2O)C[C@@H]2O[C@](O)(C[C@@H](O)C[C@@H](O)[C@H](O)CC[C@@H](O)C[C@@H](O)CC(=O)O[C@H]1C)C[C@H](O)[C@H]2C(=O)O [Compound 21, Amphotericin B]","% Permeation (percent increase or decrease vs dark baseline, equation 1)","[2]; 350 + TiO2, 8 cps vs Dark-TiO2",49.51%
same,"% Permeation (percent increase or decrease vs dark baseline, equation 1)","[2]; 350 + TiO2, 24 cps vs Dark-TiO2",71.32%
same,"% Permeation (percent increase or decrease vs dark baseline, equation 1)","[2]; 350 + TiO2, 80 cps vs Dark-TiO2",18.24%
same,Permeation,"[2]; 350 + TiO2, pulse rate 8 cps",1.54 μg/cm^2/24 hrs
same,Permeation,"[2]; 350 + TiO2, pulse rate 24 cps",2.33 μg/cm^2/24 hrs
same,Permeation,"[2]; 350 + TiO2, pulse rate 80 cps",2.01 μg/cm^2/24 hrs
same,Permeation,"[2]; 350 nm LED, pulse rate 8 cps",1.19 μg/cm^2/24 hrs
same,Permeation,"[2]; 350 nm LED, pulse rate 24 cps",3.35 μg/cm^2/24 hrs
same,Permeation,"[2]; 350 nm LED, pulse rate 80 cps",2.81 μg/cm^2/24 hrs
same,"% Permeation (percent increase or decrease vs dark baseline, equation 1)","[2]; 350 nm, 8 cps vs Dark",60.81%
same,"% Permeation (percent increase or decrease vs dark baseline, equation 1)","[2]; 350 nm, 24 cps vs Dark",66.67%
same,"% Permeation (percent increase or decrease vs dark baseline, equation 1)","[2]; 350 nm, 80 cps vs Dark",−11.36%
same,"% Permeation (percent increase or decrease vs dark baseline, equation 1)","[2]; 390 + TiO2, 8 cps vs Dark-TiO2",91.26%
same,"% Permeation (percent increase or decrease vs dark baseline, equation 1)","[2]; 390 + TiO2, 24 cps vs Dark-TiO2",48.53%
same,"% Permeation (percent increase or decrease vs dark baseline, equation 1)","[2]; 390 + TiO2, 80 cps vs Dark-TiO2",241.18%
same,Permeation,"[2]; 390 + TiO2, pulse rate 8 cps",1.97 μg/cm^2/24 hrs
same,Permeation,"[2]; 390 + TiO2, pulse rate 24 cps",2.02 μg/cm^2/24 hrs
same,Permeation,"[2]; 390 + TiO2, pulse rate 80 cps",5.80 μg/cm^2/24 hrs
same,Permeation,"[2]; 390 nm LED, pulse rate 8 cps",1.11 μg/cm^2/24 hrs
same,Permeation,"[2]; 390 nm LED, pulse rate 24 cps",1.88 μg/cm^2/24 hrs
same,Permeation,"[2]; 390 nm LED, pulse rate 80 cps",3.94 μg/cm^2/24 hrs
same,"% Permeation (percent increase or decrease vs dark baseline, equation 1)","[2]; 390 nm, 8 cps vs Dark",50.00%
same,"% Permeation (percent increase or decrease vs dark baseline, equation 1)","[2]; 390 nm, 24 cps vs Dark",−6.47%
same,"% Permeation (percent increase or decrease vs dark baseline, equation 1)","[2]; 390 nm, 80 cps vs Dark",24.29%
same,"% Permeation (percent increase or decrease vs dark baseline, equation 1)","[2]; 405 + TiO2, 8 cps vs Dark-TiO2",33.01%
same,"% Permeation (percent increase or decrease vs dark baseline, equation 1)","[2]; 405 + TiO2, 24 cps vs Dark-TiO2",817.65%
same,"% Permeation (percent increase or decrease vs dark baseline, equation 1)","[2]; 405 + TiO2, 80 cps vs Dark-TiO2",180.59%
same,Permeation,"[2]; 405 + TiO2, pulse rate 8 cps",1.37 μg/cm^2/24 hrs
same,Permeation,"[2]; 405 + TiO2, pulse rate 24 cps",12.48 μg/cm^2/24 hrs
same,Permeation,"[2]; 405 + TiO2, pulse rate 80 cps",4.77 μg/cm^2/24 hrs
same,Permeation,"[2]; 405 nm LED, pulse rate 8 cps",1.26 μg/cm^2/24 hrs
same,Permeation,"[2]; 405 nm LED, pulse rate 24 cps",1.83 μg/cm^2/24 hrs
same,Permeation,"[2]; 405 nm LED, pulse rate 80 cps",7.23 μg/cm^2/24 hrs
same,"% Permeation (percent increase or decrease vs dark baseline, equation 1)","[2]; 405 nm, 8 cps vs Dark",70.27%
same,"% Permeation (percent increase or decrease vs dark baseline, equation 1)","[2]; 405 nm, 24 cps vs Dark",−8.96%
same,"% Permeation (percent increase or decrease vs dark baseline, equation 1)","[2]; 405 nm, 80 cps vs Dark",129.65%
same,"% Permeation (percent increase or decrease vs dark baseline, equation 1)","[2]; 450 + TiO2, 8 cps vs Dark-TiO2",110.68%
same,"% Permeation (percent increase or decrease vs dark baseline, equation 1)","[2]; 450 + TiO2, 24 cps vs Dark-TiO2",8.82%
same,"% Permeation (percent increase or decrease vs dark baseline, equation 1)","[2]; 450 + TiO2, 80 cps vs Dark-TiO2",198.82%
same,Permeation,"[2]; 450 + TiO2, pulse rate 8 cps",2.17 μg/cm^2/24 hrs
same,Permeation,"[2]; 450 + TiO2, pulse rate 24 cps",1.48 μg/cm^2/24 hrs
same,Permeation,"[2]; 450 + TiO2, pulse rate 80 cps",5.08 μg/cm^2/24 hrs
same,Permeation,"[2]; 450 nm LED, pulse rate 8 cps",0.80 μg/cm^2/24 hrs
same,Permeation,"[2]; 450 nm LED, pulse rate 24 cps",1.19 μg/cm^2/24 hrs
same,Permeation,"[2]; 450 nm LED, pulse rate 80 cps",9.26 μg/cm^2/24 hrs
same,"% Permeation (percent increase or decrease vs dark baseline, equation 1)","[2]; 450 nm, 8 cps vs Dark",8.11%
same,"% Permeation (percent increase or decrease vs dark baseline, equation 1)","[2]; 450 nm, 24 cps vs Dark",−40.80%
same,"% Permeation (percent increase or decrease vs dark baseline, equation 1)","[2]; 450 nm, 80 cps vs Dark",192.11%
same,Permeation,"[2]; Dark control, 8 cps series",0.74 μg/cm^2/24 hrs
same,Permeation,"[2]; Dark control, 24 cps series",2.01 μg/cm^2/24 hrs
same,Permeation,"[2]; Dark control, 80 cps series",3.17 μg/cm^2/24 hrs
same,Permeation,"[2]; Dark-TiO2 control (2% TiO2), 8 cps series",1.03 μg/cm^2/24 hrs
same,Permeation,"[2]; Dark-TiO2 control (2% TiO2), 24 cps series",1.36 μg/cm^2/24 hrs
same,Permeation,"[2]; Dark-TiO2 control (2% TiO2), 80 cps series",1.70 μg/cm^2/24 hrs
same,Permeation,"[2]; Day (natural daylight, not pulsed), control of the 8 cps series",0.84 μg/cm^2/24 hrs
same,Permeation,"[2]; Day (natural daylight, not pulsed), control of the 24 cps series",1.59 μg/cm^2/24 hrs
same,Permeation,"[2]; Day (natural daylight, not pulsed), control of the 80 cps series",2.52 μg/cm^2/24 hrs
same,"% Permeation (percent increase or decrease vs dark baseline, equation 1)","[2]; Day vs Dark, 8 cps series",13.51%
same,"% Permeation (percent increase or decrease vs dark baseline, equation 1)","[2]; Day vs Dark, 24 cps series",−20.90%
same,"% Permeation (percent increase or decrease vs dark baseline, equation 1)","[2]; Day vs Dark, 80 cps series",−20.50%
same,Permeation,"[2]; Day-TiO2 (natural daylight, 2% TiO2, not pulsed), control of the 8 cps series",0.70 μg/cm^2/24 hrs
same,Permeation,"[2]; Day-TiO2 (natural daylight, 2% TiO2, not pulsed), control of the 24 cps series",0.89 μg/cm^2/24 hrs
same,Permeation,"[2]; Day-TiO2 (natural daylight, 2% TiO2, not pulsed), control of the 80 cps series",4.09 μg/cm^2/24 hrs
same,"% Permeation (percent increase or decrease vs dark baseline, equation 1)","[2]; Day-TiO2 vs Dark-TiO2, 8 cps series",−32.04%
same,"% Permeation (percent increase or decrease vs dark baseline, equation 1)","[2]; Day-TiO2 vs Dark-TiO2, 24 cps series",−34.56%
same,"% Permeation (percent increase or decrease vs dark baseline, equation 1)","[2]; Day-TiO2 vs Dark-TiO2, 80 cps series",140.59%
